Laboratory results reported in US12102637B2, “Pharmaceutical formulations for treating endometriosis, uterine fibroids, polycystic ovary syndrome or adenomyosis” (AbbVie Inc., priority 2017, dated 2024).
“Also recorded” adds a separate entry of the source.

Columns and labels:
[1] = target: T1, organic anion transporting polypeptide (OATP)1B1 (Homo sapiens, UniProt Q9Y6L6); experiment: Elagolix as substrate of OATP1B1
T1 sequence (Q9Y6L6 1-691): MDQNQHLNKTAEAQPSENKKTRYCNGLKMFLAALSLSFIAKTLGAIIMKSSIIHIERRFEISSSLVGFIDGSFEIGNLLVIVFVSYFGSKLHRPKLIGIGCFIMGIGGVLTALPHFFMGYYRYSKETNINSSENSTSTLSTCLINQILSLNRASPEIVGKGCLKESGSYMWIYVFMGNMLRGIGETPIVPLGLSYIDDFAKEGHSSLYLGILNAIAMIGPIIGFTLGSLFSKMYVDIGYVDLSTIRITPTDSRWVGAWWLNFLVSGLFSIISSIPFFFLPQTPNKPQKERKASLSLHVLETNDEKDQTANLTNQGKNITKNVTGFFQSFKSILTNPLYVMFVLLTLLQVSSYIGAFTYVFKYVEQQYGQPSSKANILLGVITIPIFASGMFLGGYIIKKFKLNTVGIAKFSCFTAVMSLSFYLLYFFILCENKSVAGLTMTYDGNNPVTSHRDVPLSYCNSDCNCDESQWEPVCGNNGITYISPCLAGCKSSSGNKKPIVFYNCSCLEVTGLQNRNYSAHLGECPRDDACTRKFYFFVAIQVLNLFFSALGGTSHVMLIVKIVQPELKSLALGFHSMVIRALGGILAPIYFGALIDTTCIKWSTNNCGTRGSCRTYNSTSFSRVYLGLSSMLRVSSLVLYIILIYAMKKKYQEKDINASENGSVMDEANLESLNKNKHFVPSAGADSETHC
Source text: Elagolix is a substrate of CYP3A, P-gp, and organic anion transporting polypeptide (OATP)1B1. Clinically meaningful interactions are not expected when elagolix is co-administered with drugs that inhibit CYP3A or P-gp.

[2] = tested on: estradiol; experiment: Estradiol suppression in the Phase 3 studies in women with endometriosis; assay type: in vivo, human; conditions: 150 mg QD, partial suppression
[3] = tested on: premenopausal women with endometriosis with associated pain; experiment: Rescue analgesic (opioid, naproxen) use in EM-I and EM-II; assay type: in vivo, human
Procedure: These effects were less consistently observed for women taking elagolix 150 mg QD. […] Reduction in pain may be reflected by reduction in pain medication, such as prescription opioids or non-steroidal anti-inflammatory agents (NSAIDs) that may be prescribed or found over the counter, for example, naproxen or acetaminophen. […] In this pooled analysis of rescue analgesic use in two phase 3 trials, compared with placebo: […] […] In EM-1 and EM-2, 59% and 60% of patients used an opioid rescue analgesic for pain at baseline. The opioid rescue analgesics used at baseline were predominantly hydrocodone/acetaminophen (HC/APAP) and codeine/APAP at strengths of 5/300-325 mg and 30/300-500 mg. In EM-1, of all patients on an opioid at baseline, 98% and 2% were on HC/APAP and codeine/APAP, respectively. In EM-2, of all patients on an opioid at baseline, 50% were on HC/APAP, 16% were on codeine/APAP, 3% were on codeine, and 32% were on tramadol/APAP.

[4] = tested on: endometrium; experiment: Endometrial biopsies in Study EM-I and its extension; assay type: in vivo, human; conditions: Month 6 and Month 12
Procedure: Endometrial biopsies were performed in subjects in Study EM-I and its extension at Month 6 and Month 12.

[5] = Mutagenicity studies, in vitro and in vivo test systems
Source text: Mutagenicity studies have been performed with elagolix using in vitro and in vivo test systems.

[6] = tested on: rats; experiment: 2-year carcinogenicity study in rats; assay type: in vivo; conditions: rat
Source text: The rat tumors were identified as being species-specific and of negligible relevance to humans. This conclusion is based on a follow-on thyroid and hepatic effects-related investigative study performed to document the possibility that thyroid and liver tumors may be specific to rat and occurred via induction of hepatic drug metabolizing enzymes at the high dose.

[7] = tested on: mice; experiment: 2-year carcinogenicity study in mice; assay type: in vivo; conditions: mouse, any dose
[8] = Lactation study in rats (elagolix in pup plasma); assay type: in vivo, rat
Procedure: Pregnant rats were given diet containing elagolix throughout the gestation and lactation periods to achieve a daily elagolix dose of 400 mg/kg. During nursing the dams and litters were divided into restricted feeding and non-restricted groups to determine whether elagolix was secreted in the mother's milk. […] In pups of the non-restricted feeding group, elagolix plasma concentrations were measurable and approximately 1% of the mother's plasma concentrations.

[9] = Pharmacokinetics in renal impairment; assay type: in vivo, human; conditions: moderate to severe or end stage renal disease vs normal renal function
Source text: The mean exposures are similar for women with moderate to severe or end stage renal disease (including women on dialysis) compared to women with normal renal function.

[10] = tested on: premenopausal women with endometriosis with associated pain; experiment: Blinded extension studies EM-III and EM-IV (12 months); assay type: in vivo, human; conditions: patients maintained on their dose
Source text: Each placebo-controlled study assessed the reduction in endometriosis-associated pain over 6 months of treatment. More than 75 percent of women who completed Study EM-I and EM-II enrolled in the extension studies for an additional 6 months treatment period. Subjects were followed for up to 12 months post-treatment. In study EM-IV, efficacy was maintained when elagolix was taken with and without food.

[11] = Compound A solubility experiment in water at 37° C. (gel formation); assay type: physicochemical
Procedure: The dotted line in FIG. 2 is the theoretical concentration based on the weights of the solids added and the volume of water. […] Deviation of the concentrations from the theoretical line is due to the volume expansion upon dissolution of large amount of solutes. Beyond that, the concentrations deviate from the theoretical line, but the solution is still clear and no visible gelling was observed. When more than 500 mg of Compound A solid was added, visible gelling was observed, therefore, concentrations were not determined.

For `COc1cccc(-c2c(C)n(Cc3c(F)cccc3C(F)(F)F)c(=O)n(C[C@H](NCCCC(=O)O)c3ccccc3)c2=O)c1F` [Compound A, 4-((R)-2-[5-(2-fluoro-3-methoxy-phenyl)-3-(2-fluoro-6-trifluoromethyl-benzyl)-4-methyl-2,6-dioxo-3,6-dihydro-2H-pyrimidin-1-yl]-1-phenyl-ethylamino)-butyric acid], the “substrate of organic anion transporting polypeptide (OATP)1B1” value [1] was “substrate”, the “suppression of estradiol to” value [2] was “approximately 50 pg/mL” and the “amount of opioid or naproxen rescue medication used vs baseline” value ([3]; 200 mg BID) was “reduced the amount of opioid (hydrocodone with acetaminophen) or naproxen rescue medication”. The “mean percent daily rescue opioid pill counts” value ([3]; pooled analysis, 200 mg BID, vs placebo) was “significant reduction in the mean percent daily pill counts”, the “percentage of days in which rescue opioid medication was taken” value ([3]; pooled analysis, both doses 150 QD and 200 BID, vs placebo) was “significant reduction in the percentage of days in which rescue opioid medication was taken” and the endometrial biopsy findings [4] was “no abnormal biopsy findings post-baseline”. For the same molecule, the “mutagenic or clastogenic potential” value [5] was “no evidence of a mutagenic or clastogenic potential”, the “margin of safety with respect to 200 mg BID in women” value ([6]; both, in vivo, 2 years) was 13 fold and the “tumors, 2-year carcinogenicity study” value ([6]; high dose) was “increase in thyroid (male and female) and liver (males only) tumors”. The “tumors, 2-year carcinogenicity study” value [7] was “no increase in tumors”, the “elagolix plasma concentrations in pups, % of the mother's plasma concentrations” value ([8]; dams 400 mg/kg daily in diet, non-restricted feeding group) was “approximately 1%” and the “elagolix plasma concentrations in pups” value ([8]; dams 400 mg/kg daily in diet, restricted feeding litters, post natal day 10 and 20) was “not measurable”. For the same molecule, the secretion in milk ([8]; listed as elagolix) was “secreted minimally via milk; also recorded: minimally secreted in milk”, the “exposures (Cmax and AUC) in renal impairment” value [9] was “not altered by renal impairment” and the “durability of improvement in dysmenorrhea, NMPP and dyspareunia” value [10] was “demonstrated for a total of 12 months”. For the same molecule, the “Final pH” value ([11]; 12.2 mg added to 1.5 mL water) was 9.66, the “Measured Concentration” value ([11]; 12.2 mg added to 1.5 mL water) was 7.45 mg/mL and the Observation ([11]; 12.2 mg added to 1.5 mL water) was “Clear solution”. For the same molecule, the “Final pH” value ([11]; 28.7 mg added to 1.5 mL water) was 9.96, the “Measured Concentration” value ([11]; 28.7 mg added to 1.5 mL water) was 17.3 mg/mL and the Observation ([11]; 28.7 mg added to 1.5 mL water) was “Clear solution”. For the same molecule, the “Final pH” value ([11]; 49.8 mg added to 1.5 mL water) was 10.10, the “Measured Concentration” value ([11]; 49.8 mg added to 1.5 mL water) was 28.0 mg/mL and the Observation ([11]; 49.8 mg added to 1.5 mL water) was “Clear solution”. For the same molecule, the “Final pH” value ([11]; 100.4 mg added to 1.5 mL water) was 10.16, the “Measured Concentration” value ([11]; 100.4 mg added to 1.5 mL water) was 60.8 mg/mL and the Observation ([11]; 100.4 mg added to 1.5 mL water) was “Clear solution”. The “Final pH” value ([11]; 202.5 mg added to 1.5 mL water) was 10.18, the “Measured Concentration” value ([11]; 202.5 mg added to 1.5 mL water) was 111 mg/mL and the Observation ([11]; 202.5 mg added to 1.5 mL water) was “Clear solution”. For the same molecule, the “Final pH” value ([11]; 295.6 mg added to 1.5 mL water) was 10.20, the “Measured Concentration” value ([11]; 295.6 mg added to 1.5 mL water) was 149 mg/mL and the Observation ([11]; 295.6 mg added to 1.5 mL water) was “Clear solution”. For the same molecule, the “Final pH” value ([11]; 503.2 mg added to 1.5 mL water) was 10.17, the “Measured Concentration” value ([11]; 503.2 mg added to 1.5 mL water) was 170 mg/mL and the Observation ([11]; 503.2 mg added to 1.5 mL water) was “Clear solution”. For the same molecule, the Observation ([11]; 700.9 mg added to 1.5 mL water) was “Gel formation” and the Observation ([11]; 990.0 mg added to 1.5 mL water) was “Gel formation”.
